Experimental data from ChEMBL document CHEMBL5247605, “Discovery of potent indazole-based human glutaminyl cyclase (QC) inhibitors as Anti-Alzheimer's disease agents” (Eur J Med Chem, 2022).
Calls of active or inactive are those of the source. No cut-off for these calls is given here.

Assays:
Mus musculus [1] = organism: Mus musculus; settings: ICR, dose 10.0 mM, route icv
hERG (KCNH2) = hERG (KCNH2) (Homo sapiens, UniProt Q12809); test: Inhibition of hERG at 10 uM by fluorescence polarization assay relative to control; type: toxicity
[2] = Cytotoxicity against mouse HT-22 cells assessed as cell viability at 10 uM incubated for 18 hrs by MTT assay relative to control; type: toxicity, cell-based; settings: read-out: Activity
[3] = target: Voltage-gated inwardly rectifying potassium channel KCNH2 (Homo sapiens, UniProt Q12809); test: Inhibition of hERG by fluorescence polarization assay; type: toxicity
Mus musculus [4] = test: Antialzheimer activity in human amyloid beta (3 to 40 residues) induced ICR mouse model assessed as inhibition of pyroglutamate form of amyloid-beta formation in brain at 10 mM, icv by sandwich ELISA relative to control; type: functional
[5] = Metabolic stability in mouse liver microsomes assessed as compound remaining after 30 mins; type: ADME, Microsome; settings: read-out: Stability
[6] = Metabolic stability in human liver microsomes assessed as compound remaining after 30 mins; type: ADME, Microsome; settings: read-out: Stability
[7] = target: Glutaminyl-peptide cyclotransferase (Mus musculus, UniProt Q9CYK2); test: Inhibition of mouse glutaminyl cyclase
Sequence of Glutaminyl-peptide cyclotransferase (Q9CYK2 whole entry): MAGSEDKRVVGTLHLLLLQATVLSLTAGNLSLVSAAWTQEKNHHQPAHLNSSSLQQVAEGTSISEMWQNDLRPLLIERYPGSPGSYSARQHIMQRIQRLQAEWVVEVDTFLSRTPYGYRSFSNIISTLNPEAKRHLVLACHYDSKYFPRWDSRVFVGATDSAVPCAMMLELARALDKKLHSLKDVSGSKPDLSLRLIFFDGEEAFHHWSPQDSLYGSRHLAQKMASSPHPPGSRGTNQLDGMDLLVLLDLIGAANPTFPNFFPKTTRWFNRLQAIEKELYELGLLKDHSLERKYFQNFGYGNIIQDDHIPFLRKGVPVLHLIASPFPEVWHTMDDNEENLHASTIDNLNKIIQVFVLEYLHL

Sequence of hERG (KCNH2) (Q12809 whole entry): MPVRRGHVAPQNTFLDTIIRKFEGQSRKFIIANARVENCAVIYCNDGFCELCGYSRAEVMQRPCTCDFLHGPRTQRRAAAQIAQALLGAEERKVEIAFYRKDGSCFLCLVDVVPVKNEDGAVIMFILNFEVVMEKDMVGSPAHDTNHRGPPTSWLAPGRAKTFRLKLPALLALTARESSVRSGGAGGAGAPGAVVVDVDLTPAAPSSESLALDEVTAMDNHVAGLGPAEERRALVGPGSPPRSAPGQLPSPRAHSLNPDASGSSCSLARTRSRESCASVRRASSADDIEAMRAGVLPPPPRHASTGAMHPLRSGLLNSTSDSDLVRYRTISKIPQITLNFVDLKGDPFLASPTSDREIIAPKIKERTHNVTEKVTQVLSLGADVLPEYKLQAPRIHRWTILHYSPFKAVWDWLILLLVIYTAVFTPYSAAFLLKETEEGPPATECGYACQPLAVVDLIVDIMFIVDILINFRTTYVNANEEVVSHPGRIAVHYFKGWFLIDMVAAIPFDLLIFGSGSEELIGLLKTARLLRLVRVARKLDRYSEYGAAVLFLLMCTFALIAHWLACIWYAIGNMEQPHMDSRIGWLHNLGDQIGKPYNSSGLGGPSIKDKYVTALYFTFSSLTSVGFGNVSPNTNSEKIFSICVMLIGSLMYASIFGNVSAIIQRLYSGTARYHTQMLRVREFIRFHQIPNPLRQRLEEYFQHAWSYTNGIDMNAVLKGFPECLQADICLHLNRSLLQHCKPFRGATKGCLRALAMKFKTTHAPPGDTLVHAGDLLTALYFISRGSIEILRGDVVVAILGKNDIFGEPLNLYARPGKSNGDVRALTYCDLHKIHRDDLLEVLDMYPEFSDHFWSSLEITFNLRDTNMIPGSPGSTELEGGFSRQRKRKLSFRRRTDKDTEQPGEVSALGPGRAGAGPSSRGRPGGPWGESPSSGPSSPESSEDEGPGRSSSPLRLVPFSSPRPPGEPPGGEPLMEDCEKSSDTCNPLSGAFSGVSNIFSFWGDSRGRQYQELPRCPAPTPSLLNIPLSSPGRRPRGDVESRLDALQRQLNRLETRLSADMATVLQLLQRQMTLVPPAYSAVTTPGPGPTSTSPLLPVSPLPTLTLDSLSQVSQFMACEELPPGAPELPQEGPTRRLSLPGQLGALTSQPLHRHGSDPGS
Sequence of Voltage-gated inwardly rectifying potassium channel KCNH2 (Q12809 whole entry, the tested form may be a part): as the sequence (Q12809 whole entry) above

Compound	inhibition (Mus musculus [1])	inhibition at 10 µM (hERG (KCNH2)) [%]	viability at 18 h, 10 µM [2] [%]	IC50 [3] [µM]	inhibition (INH) (Mus musculus [4]) [%]	remaining at 0.5 h [5] [%]	remaining at 0.5 h [6] [%]	IC50 [7] [µM]
Cc1nn(C)c2cc(N(Cc3ccc(F)cc3)C(=O)NCCCn3cncc3C)ccc12	inactive	56.5	102	–	–	–	–	–
Cc1n[nH]c2ccc(N(C(=O)NCCCn3cncc3C)C3CCCCC3)cc12	–	74.4	100	> 10	8	–	–	–
Cc1nn(C)c2ccc(N(CC3CCCC3)C(=O)NCCCn3cncc3C)cc12	inactive	81.5	104	> 10	–	–	–	–
Cc1nn(C)c2ccc(N(Cc3ccc(F)cc3)C(=O)NCCCn3cncc3C)cc12	–	63.6	108	> 10	7	–	–	–
Cc1nn(C)c2ccc(NC(=O)NCCCn3cncc3C)cc12	inactive	54.4	104	–	–	–	–	–
Cc1n[nH]c2cc(N(CC3CCCC3)C(=O)NCCCn3cncc3C)ccc12	–	80.8	96.9	> 10	25.5	11.8	37	0.0182
Cc1nn(C)c2cc(N(C(=O)NCCCn3cncc3C)C3CCCCC3)ccc12	inactive	52.2	102	–	–	–	–	–
Cc1n[nH]c2cc(N(C(=O)NCCCn3cncc3C)C3CCCCC3)ccc12	–	47.6	100	< 10	25	18.4	50.4	0.0342
Cc1nn(CCCCc2ccnc(N)c2)c2ccc(NC(=O)NCCCn3cncc3C)cc12	–	50.3	98.7	–	7.7	–	–	–
Cc1cncn1CCCNC(=O)N(Cc1ccc(F)cc1)c1ccc2c(C)n(C)nc2c1	–	52	91.3	–	15	–	–	–
Cc1nn(C)c2ccc(N(C(=O)NCCCn3cncc3C)C3CCCCC3)cc12	inactive	58.1	99.1	> 10	–	–	–	–
Cc1nn(C)c2ccc(N(Cc3cccnc3)C(=O)NCCCn3cncc3C)cc12	inactive	44.1	98.3	< 10	–	–	–	–
CCCOc1ccc([C@@H]2CNC(=O)N2c2ccc3nc[nH]c3c2)cc1	–	–	–	–	17.1	–	–	–
Cc1nn(C)c2cc(N(CC3CCCC3)C(=O)NCCCn3cncc3C)ccc12	inactive	70.3	107	> 10	–	–	–	–
Cc1n[nH]c2cc(N(Cc3ccc(F)cc3)C(=O)NCCCn3cncc3C)ccc12	–	61.9	92.1	> 10	38.4	7.2	40.1	0.0299
Cc1n[nH]c2ccc(N(Cc3ccc(F)cc3)C(=O)NCCCn3cncc3C)cc12	inactive	80.6	97.2	> 10	–	–	–	–
